How the values were obtained:
[1] = target: T1, human D2 dopamine receptor (Homo sapiens, UniProt P14416); experiment: Radioligand binding ([3H]-spiperone) to cloned human D2 receptor, HEK-293 EBNA cell membranes; conditions: 0.7 nM [3H]-spiperone, 1 h at RT, Cheng-Prusoff
T1 construct: expressed in transfected cells; host or cells: HEK-293 EBNA cells, transient transfection; membrane preparation
Procedure: (§1) Membrane Preparation for Human D2, Human D3 and Human 5-HT2A Receptors
(§2) HEK-293 EBNA cells were transiently transfected with expression plasmids encoding for the human D2 or D3 dopamine- or for the human 5-HT2A serotonin receptor, respectively. The cells were harvested 48 h post-transfection, washed three times with cold PBS and stored at −80° C. prior to use. The pellet was suspended in cold 50 mM Tris-HCl buffer containing 10 mM EDTA (pH 7.4) and homogenized with a Polytron (Kinematica AG, Basel, Switzerland) for 20-30 sec at 12.000 rpm. After centrifugation at 48.000×g for 30 min at 4° C., the pellet was resuspended in cold 10 mM Tris-HCl buffer containing 0.1 mM EDTA (pH 7.4), homogenized, and centrifuged as above. This pellet was further resuspended in a smaller volume of ice cold 10 mM Tris-HCl buffer containing 0.1 mM EDTA (pH 7.4) and homogenized with a Polytron for 20-30 sec at 12.000 rpm. The protein content of this homogenate was determined with the Bio-Rad (Bradford) Protein Assay (Biorad Laboratories GmbH, München, Germany) according to the instructions of the manufacturer using gamma globulin as the standard. This homogenate was stored at −80° C. in aliquots and thawed immediately prior to use.
(§3) Radioligand Binding Assay Conditions
(§4) Aliquots of membrane preparations were thawed at RT, resuspended in assay buffer (D2, D3: 50 mM Tris-HCl, 120 mM NaCl, 5 mM MgCl2, 1 mM EDTA, 5 mM KCl, 1.5 mM CaCl2, pH=7.4; 5-HT2A: 50 mM Tris-HCl, 10 mM MgCl2, 1 mM EGTA, pH=7.4), homogenized with a Polytron for 20-30 sec at 12.000 rpm and adjusted to a final concentration of approximately 7.5 μg protein/well (D2, D3) and 15 μg protein/well (5-HT2A), respectively.
(§5) The binding affinity (Ki) of the compounds was determined using radioligand binding. Membranes were incubated in a total volume of 200 μl with a fixed concentration of radioligand (final concentration approximately 0.7 nM [^3H]-spiperone for D2, 0.5 nM [^3H]-spiperone for D3, and 1.1 nM [^3H]-ketanserin for 5-HT2A) and ten concentrations of test compound in ranging between 10 μM-0.1 nM for 1 h at RT. At the end of the incubation, the reaction mixtures were filtered on to unifilter 96-well white microplates with bonded GF/C filters (Packard BioScience, Zürich, Switzerland; preincubated for 1 h in 0.1% polyethylenimine (PEI) in assay buffer) with a Filtermate 196 harvester (Packard BioScience) and washed 3 times with cold assay buffer. The nonspecific binding was determined with equally composed reaction mixtures in the presence of 10 μM unlabeled spiperone. Per well 45 μl of Microscint 40 (Perkin Elmer, Schwerzenbach, Switzerland) was added, plates for sealed, shaken for 20 min and counted for 3 min on a Topcount Microplate Scintillation Counter (Canberra Packard SA, Zürich, Switzerland) with quenching correction.
(§6) The CPM value for each duplicate of a concentration of competing compound was averaged (yl), then the % specific binding was calculated according to the equation (((yl-non-specific)/(total binding-non-specific))×100). Graphs were plotted with the % specific binding using XLfit, a curve fitting program that iteratively plots the data using Levenburg Marquardt algorithm. The single site competition analysis equation used was y=A+((B−A)/(1+((x/C)^D))), where y is the % specific binding, A is the minimum y, B is the maximum y, C is the IC50, x is the log10 of the concentration of the competing compound and D is the slope of the curve (the Hill Coefficient). […] The affinity constant (Ki) was calculated using the Cheng-Prusoff equation Ki=(IC50/1+([L]/Kd), where [L] is the concentration of radioligand and Kd is the dissociation constant of the radioligand at the receptor as determined by the saturation isotherm.

[2] = target: T2, human 5-HT2A serotonin receptor (Homo sapiens, UniProt P28223); experiment: Radioligand binding ([3H]-ketanserin) to cloned human 5-HT2A receptor, HEK-293 EBNA cell membranes; conditions: 1.1 nM [3H]-ketanserin, 1 h at RT, Cheng-Prusoff
T2 construct: expressed in transfected cells; host or cells: HEK-293 EBNA cells, transient transfection; membrane preparation
T2 sequence (P28223 whole entry): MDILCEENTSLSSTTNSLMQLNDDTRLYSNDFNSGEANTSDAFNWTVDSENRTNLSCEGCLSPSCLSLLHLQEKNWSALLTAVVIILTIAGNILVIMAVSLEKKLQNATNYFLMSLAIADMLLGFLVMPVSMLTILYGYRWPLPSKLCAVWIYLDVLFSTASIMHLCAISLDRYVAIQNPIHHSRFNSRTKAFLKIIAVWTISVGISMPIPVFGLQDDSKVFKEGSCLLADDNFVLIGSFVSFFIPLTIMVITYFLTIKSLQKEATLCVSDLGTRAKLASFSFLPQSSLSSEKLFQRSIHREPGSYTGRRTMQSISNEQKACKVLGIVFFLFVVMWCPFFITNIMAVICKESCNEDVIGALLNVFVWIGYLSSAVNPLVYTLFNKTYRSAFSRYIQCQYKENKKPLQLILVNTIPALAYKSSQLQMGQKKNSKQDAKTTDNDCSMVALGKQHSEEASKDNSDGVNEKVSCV
Procedure: as §1
as §2, with “The” for “HEK-293 EBNA cells were transiently transfected with expression plasmids encoding for the human D2 or D3 dopamine- or for the human 5-HT2A serotonin receptor, respectively. The”
as §3, §4
The binding affinity (Ki) of the compounds was determined using radioligand binding. […] The nonspecific binding was determined with equally composed reaction mixtures in the presence of 10 μM unlabeled spiperone. Per well 45 μl of Microscint 40 (Perkin Elmer, Schwerzenbach, Switzerland) was added, plates for sealed, shaken for 20 min and counted for 3 min on a Topcount Microplate Scintillation Counter (Canberra Packard SA, Zürich, Switzerland) with quenching correction.
as §6

[3] = target: T3, human D3 dopamine receptor (Homo sapiens, UniProt P35462); experiment: Radioligand binding ([3H]-spiperone) to cloned human D3 receptor, HEK-293 EBNA cell membranes; conditions: 0.5 nM [3H]-spiperone, 1 h at RT, Cheng-Prusoff
T3 construct: expressed in transfected cells; host or cells: HEK-293 EBNA cells, transient transfection; membrane preparation
T3 sequence (P35462 whole entry): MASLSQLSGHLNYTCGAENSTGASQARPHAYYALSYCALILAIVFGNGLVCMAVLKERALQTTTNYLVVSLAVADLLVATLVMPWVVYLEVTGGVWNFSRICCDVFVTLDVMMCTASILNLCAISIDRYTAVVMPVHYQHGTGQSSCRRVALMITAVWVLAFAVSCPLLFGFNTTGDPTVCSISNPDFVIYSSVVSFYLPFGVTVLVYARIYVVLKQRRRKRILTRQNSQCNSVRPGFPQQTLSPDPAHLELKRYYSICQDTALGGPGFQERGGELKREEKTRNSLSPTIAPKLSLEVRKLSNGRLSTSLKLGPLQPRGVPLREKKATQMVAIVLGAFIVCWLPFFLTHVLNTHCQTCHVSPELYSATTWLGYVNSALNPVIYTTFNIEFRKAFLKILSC
Procedure: The ability of the compounds to bind to the 5-HT2A, D3 and D2 receptors was determined using radioligand binding to cloned receptors selectively expressed in HEK-293 EBNA cells.
as §1, §2, §3, §4, §5, §6

T1 sequence (P14416 whole entry): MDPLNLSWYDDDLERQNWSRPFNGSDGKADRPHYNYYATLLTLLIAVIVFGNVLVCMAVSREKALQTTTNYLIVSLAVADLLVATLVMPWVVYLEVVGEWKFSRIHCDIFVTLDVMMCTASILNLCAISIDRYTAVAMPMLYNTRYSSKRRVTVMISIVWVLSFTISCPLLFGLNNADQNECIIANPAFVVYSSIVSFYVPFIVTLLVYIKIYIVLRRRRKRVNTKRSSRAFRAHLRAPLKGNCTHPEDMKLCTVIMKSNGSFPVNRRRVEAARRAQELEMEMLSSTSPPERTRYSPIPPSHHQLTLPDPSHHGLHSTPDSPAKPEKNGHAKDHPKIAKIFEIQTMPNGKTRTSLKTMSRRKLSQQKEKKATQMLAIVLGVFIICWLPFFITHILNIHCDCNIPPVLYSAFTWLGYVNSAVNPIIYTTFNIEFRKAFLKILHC

| Structure (SMILES) | Ki [1] | Ki [2] | Ki [3] |
| --- | --- | --- | --- |
| COC[C@H]1C[C@H](CC(=O)N[C@H]2CC[C@H](CCN3CCC(C(=O)c4ccc(F)cc4)CC3)CC2)C1 [Example 25, N-trans (4-{2-[4-(4-Fluoro-benzoyl)-piperidin-1-yl]-ethyl}-cyclohexyl)-2-trans (3-methoxymethyl-cyclobutyl)-acetamide] | 1860 nM | 9 nM | 27 nM |
| CO[C@H]1CC[C@@H](CC(=O)N[C@H]2CC[C@H](CCN3CCC(C(=O)c4ccc(F)cc4)CC3)CC2)CC1 [Example 2, N-trans (4-{2-[4-(4-Fluoro-benzoyl)-piperidin-1-yl]-ethyl}-cyclohexyl)-2-cis (4-methoxy-cyclohexyl)-acetamide] | 1510 nM | 6 nM | 28 nM |
| CCO[C@H]1CC[C@H](CC(=O)N[C@H]2CC[C@H](CCN3CCC(C(=O)c4ccc(F)cc4)CC3)CC2)C1 (racemic) [Example 18, rac-2-(trans-3-Ethoxy-cyclopentyl)-N-trans-(4-{2-[4-(4-fluoro-benzoyl)-piperidin-1-yl]-ethyl}-cyclohexyl)-acetamide] | 1940 nM | 28 nM | 42 nM |
| O=C(CC1CCC2(CC1)OCCO2)N[C@H]1CC[C@H](CCN2CCC(C(=O)c3ccc(F)cc3)CC2)CC1 [Example 12, 2-(1,4-Dioxa-spiro[4.5]dec-8-yl)-N-trans (4-{2-[4-(4-fluoro-benzoyl)-piperidin-1-yl]-ethyl}-cyclohexyl)-acetamide] | 1740 nM | 6 nM | 24 nM |
| O=C(C[C@H]1CC[C@@H](O)C1)N[C@H]1CC[C@H](CCN2CCC(C(=O)c3ccc(F)cc3)CC2)CC1 (racemic) [Example 6, rac-trans-N (4-{2-[4-(4-Fluoro-benzoyl)-piperidin-1-yl]-ethyl}-cyclohexyl)-2-cis (3-hydroxy-cyclopentyl)-acetamide] | 828 nM | 11 nM | 35 nM |
| O=C(CC1CCC(OC2CCOC2)CC1)N[C@H]1CC[C@H](CCN2CCC(C(=O)c3ccc(F)cc3)CC2)CC1 (mixture of isomers) [Example 17, rac-N-Trans (4-{2-[4-(4-Fluoro-benzoyl)-piperidin-1-yl]-ethyl}-cyclohexyl)-2-[4-(tetrahydro-furan-3-yloxy)-cyclohexyl]-acetamide] | 2610 nM | 11 nM | 40 nM |
| CO[C@@H]1CCC[C@@H](CC(=O)N[C@H]2CC[C@H](CCN3CCC(C(=O)c4ccc(F)cc4)CC3)CC2)C1 (single isomer, unassigned) [Example 16, N-trans (4-{2-[4-(4-Fluoro-benzoyl)-piperidin-1-yl]-ethyl}-cyclohexyl)-2-((1R,3R)-3-methoxy-cyclohexyl)-acetamide or N-trans (4-{2-[4-(4-fluoro-benzoyl)-piperidin-1-yl]-ethyl}-cyclohexyl)-2-((1S,3S)-3-methoxy-cyclohexyl)-acetamide] | 1250 nM | 7 nM | 35 nM |
| CCO[C@H]1CC[C@H](CC(=O)N[C@H]2CC[C@H](CCN3CCC(C(=O)c4ccc(F)cc4)CC3)CC2)CC1 [Example 13, Trans-2-(4-Ethoxy-cyclohexyl)-N-trans (4-{2-[4-(4-fluoro-benzoyl)-piperidin-1-yl]-ethyl}-cyclohexyl)-acetamide] | 1400 nM | 13 nM | 33 nM |
| C[C@]1(O)CC[C@@H](CC(=O)N[C@H]2CC[C@H](CCN3CCC(C(=O)c4ccc(F)cc4)CC3)CC2)CC1 (single isomer, unassigned) [Example 24, N-trans (4-{2-[4-(4-Fluoro-benzoyl)-piperidin-1-yl]-ethyl}-cyclohexyl)-2-(4-cis-hydroxy-4-methyl-cyclohexyl)-acetamide or N-trans (4-{2-[4-(4-fluoro-benzoyl)-piperidin-1-yl]-ethyl}-cyclohexyl)-2-(4-trans-hydroxy-4-methyl-cyclohexyl)-acetamide] | 1200 nM | 9 nM | 43 nM |
| CO[C@@H]1CCC[C@H](CC(=O)N[C@H]2CC[C@H](CCN3CCC(C(=O)c4ccc(F)cc4)CC3)CC2)C1 (racemic) [Example 5, rac-N-trans (4-{2-[4-(4-Fluoro-benzoyl)-piperidin-1-yl]-ethyl}-cyclohexyl)-2-cis (3-methoxy-cyclohexyl)-acetamide] | 1190 nM | 19 nM | 45 nM |
| CC1(O)CCC(CC(=O)N[C@H]2CC[C@H](CCN3CCC(C(=O)c4ccc(F)cc4)CC3)CC2)CC1 (mixture of isomers) [Example 22, N-trans (4-{2-[4-(4-Fluoro-benzoyl)-piperidin-1-yl]-ethyl}-cyclohexyl)-2-(4-cis/trans-hydroxy-4-methyl-cyclohexyl)-acetamide] | 1360 nM | 12 nM | 56 nM |
| COC[C@H]1C[C@@H](CC(=O)N[C@H]2CC[C@H](CCN3CCC(C(=O)c4ccc(F)cc4)CC3)CC2)C1 [Example 26, N-trans (4-{2-[4-(4-Fluoro-benzoyl)-piperidin-1-yl]-ethyl}-cyclohexyl)-2-cis (3-methoxymethyl-cyclobutyl)-acetamide] | 2030 nM | 6 nM | 26 nM |
| O=C(C[C@H]1CCC[C@@H](O)C1)N[C@H]1CC[C@H](CCN2CCC(C(=O)c3ccc(F)cc3)CC2)CC1 (racemic) [Example 4, rac-N-trans (4-{2-[4-(4-Fluoro-benzoyl)-piperidin-1-yl]-ethyl}-cyclohexyl)-2-cis (3-hydroxy-cyclohexyl)-acetamide] | 1010 nM | 14 nM | 43 nM |
| COCC1CCC(CC(=O)N[C@H]2CC[C@H](CCN3CCC(C(=O)c4ccc(F)cc4)CC3)CC2)C1 (mixture of isomers) [Example 28, rac-N-trans (4-{2-[4-(4-Fluoro-benzoyl)-piperidin-1-yl]-ethyl}-cyclohexyl)-2-(3-methoxymethyl-cyclopentyl)-acetamide] | 1300 nM | 7 nM | 33 nM |
| O=C(C[C@H]1CC[C@H](O)C1)N[C@H]1CC[C@H](CCN2CCC(C(=O)c3ccc(F)cc3)CC2)CC1 (racemic) [Example 7, rac-N-trans (4-{2-[4-(4-Fluoro-benzoyl)-piperidin-1-yl]-ethyl}-cyclohexyl)-2-trans (3-hydroxy-cyclopentyl)-acetamide] | 807 nM | 16 nM | 19 nM |
